Experimental data: patent US20250049705A1, “PHARMACEUTICAL COMPOSITION COMPRISING TIGECYCLINE” (ZAMBON S.p.A., priority 2021, published 2025)

Legend:
Mycobacterium abscessus = test: Anti-mycobacterial activity in infected THP-1 macrophages (CFU of cell lysates); type: cell-based
Experimental: Modification of the Dulbecco Eagle medium (Cellgro 15-017-cv) supplemented with: • Heat-inactivated fetal calf serum (Atlas Biologicals, Fort Collins, CO, F-0500-A) (10%) • LCM (10%)
Medium conditioned by L929: L-929 (CCL-1) (ATCC) cells secrete the macrophage colony-stimulating factor (M-CSF), the cytokine that differentiates bone marrow macrophages/monocyte progenitors into a homogeneous population of mature macrophages. They are seeded at 4.7×10^5 cells in 55 ml of DMEM+10% of fetal calf serum in a ball of 75 cm2. Cells are left to grow for 3 days and then the supernatant is collected and filtered through a 0.45 μm filter, aliquoted and frozen at −20° C.
The cell-free filtrate is used in DMEM media. • L-glutamine (Sigma G-7513) (2 mM) • HEPES buffer (Sigma H-0887) (10 mM) Antibiotic/antimycotic (Sigma A-9909) (1×) • non-essential amino acids MEM (Sigma M-7145) (1×) • 2-mercaptoethanol (Sigma M-6250) (50 nM)
THP-1 cells were expanded for 2 weeks.
Complete DMEM media free of antibiotic/antimycotic were not changed during the 3-day test.
On day 0, the media were removed from the cells and replaced with 0.2 mL of antibiotic/antimycotic-free DMEM containing Mycobacterium abscessus at a ratio of 10 bacteria per macrophage.
The tissue culture plates were placed inside closed Ziploc bags and transported to the incubator. Once inside the incubator, the bags were opened. The cells were incubated with the bacteria for 2 hours.
After the infection, the extracellular bacteria were removed by washing each well once with PBS. Then 2 mL of complete DMEM medium free of antibiotics/antimycotics and various drug concentrations were added.
Each drug concentration was tested in triplicate. Culture plates were incubated with antibiotics at 37° C.+5% CO2 for 3 days.

[1] = Storage of a solution of tigecycline (degradation in aqueous solution); type: physicochemical; settings: degradation by oxidation and epimerization; 24 hours at 5° C., 25° C. and 40° C.

## CN(C)c1cc(NC(=O)CNC(C)(C)C)c(O)c2c1C[C@H]1C[C@H]3[C@H](N(C)C)C(O)=C(C(N)=O)C(=O)[C@@]3(O)C(O)=C1C2=O [Pure Tigecycline, tigecycline]
Mycobacterium abscessus; pure tigecycline 1 μg/ml
  Day 1 CFU: 287 CFU
  Day 2 CFU: 2067 CFU
  Day 3 CFU: 2667 CFU
Mycobacterium abscessus; pure tigecycline 2 μg/ml
  Day 1 CFU: 263 CFU
  Day 2 CFU: 203 CFU
  Day 3 CFU: 1743 CFU
Mycobacterium abscessus; pure tigecycline 4 μg/ml
  Day 1 CFU: 427 CFU
  Day 2 CFU: 123 CFU
  Day 3 CFU: 267 CFU
Mycobacterium abscessus; pure tigecycline 8 μg/ml
  Day 1 CFU: 303 CFU
  Day 2 CFU: 203 CFU
  Day 3 CFU: 220 CFU
Mycobacterium abscessus; pure tigecycline 16 μg/ml
  Day 1 CFU: 333 CFU
  Day 2 CFU: 203 CFU
  Day 3 CFU: 153 CFU
Mycobacterium abscessus; pure tigecycline 24 μg/ml
  Day 1 CFU: 287 CFU
  Day 2 CFU: 90 CFU
  Day 3 CFU: 143 CFU
[1]
  stability in aqueous solution: extremely unstable
